Results from patent US8158575B2, “Agent for the prevention and treatment of sexually transmitted diseases-I” (priority 2001, dated 2012).

Assays:
[1] = system: IIIB strain of HIV; format: cell-based, HIV-1; conditions: HeLa CD4 LTR […]-gal cells
Description: At 24 h media is removed and compound in media placed on the cells and incubated for 15 min at 37° C.

[2] = system: Lactobacillus crispatus; assay: Lactobacillus growth sensitivity assay; format: cell-based; conditions: 24 h growth, OD 490 nm
Description: (§1) Lactobacillus crispatus and Lactobacillus jensenii were obtained from the American Type Tissue Culture Collection and grown in Lactobacilli MRS broth (Difco, Fisher Scientific, Pittsburgh, Pa.). This medium allows efficient growth of the Lactobacilli under anaerobic conditions. Bacillus stocks are produced and frozen in 15% glycerol at −80° C. for use in the sensitivity assay. To assess the effect of compounds on L. crispatus and L. jensenii growth, 10 ml of MRS media is inoculated with a stab from the glycerol bacterial stock. The culture is placed in a Gas Pak CO2 bag and incubated for 24 h at 37° C. The next day the lactobacillus cultures are diluted to an OD of 0.06 at a wavelength of 670 nm. Compounds are diluted and placed into a 96 well flat bottomed plate and the Lactobacillus sp. added. Commercially available Penicillin/Streptomycin solution at a high test concentration of 1.25 U/ml and 1.25 µg/ml, respectively, are used as the positive control. The plates are again incubated for 24 h at 37° C. in a Gas Pak CO2 bag and bacterial growth determined by measurement of optical density at 490 nm in a molecular devices plate reader. All determinations are performed with 6½ log dilutions from a high test concentration in triplicate.

[3] = system: Lactobacillus jensenii; assay: Lactobacillus growth sensitivity assay; format: cell-based; conditions: 24 h growth, OD 490 nm
Description: as §1

[4] = system: HeLa CD4 LTR […]-gal cells; assay: XTT toxicity on sister plate of the fusion assay; format: cell-based
Description: The fusion assay assesses the ability of compounds to block cell-to-cell fusion mediated by HIV-1 Env and CD4 expressed on separate cells. This assay is sensitive to inhibitors of both the gp120/CD4 interaction and inhibitors of the X4 coreceptor. First, 5×10^3 HeLa CD4 LTR […]-gal cells are placed in microtiter wells and incubated overnight. The following day the media is removed and the HeLa CD4 LTR […]-gal cells are incubated for 1 h at 37° C. in fresh media with test compound. Following the incubation 5×10^3 HL2/3 cells are added and the incubation continued for 40 to 48 h. At 40 to 48 h […]-galactosidase enzyme expression is detected by chemiluminescence (Tropix Gal-screen™, Tropix, Bedford, Mass.). Compound toxicity is monitored on a sister plate using XTT dye reduction.

[5] = system: ME180 cells; assay: XTT cell viability in the CD4-independent transmission assay
Description: ME180 cells, a CD4 negative, X4 positive cervical epithelial cell line is maintained in RPMI 1640 supplemented with 10% fetal bovine serum, glutamine and antibiotics. Twenty-four h prior to the assay ME180 cells are trypsonized, washed and seeded in 96-well flat bottom microtiter plates at a density of 2×10^3 cells per well. On the day of the assay, H9 cells chronically infected with the SK1 clinical isolate of HIV-1 (H9-SK1) are treated with freshly made mitomycin C (200 μg/ml) for 60 minutes at 37° C. This concentration of mitomycin C is sufficient to result in cell death, but allows virus transmission to occur. After mitomycin C treatment the H9-SK1 cells are washed three times with tissue culture medium. Test compounds are added to the ME180 monolayer followed by 2×10^4 H9-SK1 cells. The ME180 cells are co-cultured with H9-SK-1 cells and test material for 4 h, and the H9-SK1 cells are removed by washing the ME180 monolayer three times with PBS. At 24 and 48 h post assay initiation the wells are again washed three times with PBS to ensure removal of the H9-SK1 cells, and culture continued in test material free media. At six days post-co-cultivation, supernatants are collected and evaluated for p24 antigen expression by ELISA. Cell viability is assessed by XTT dye reduction. […] Testing in the presence of mucin is carried out by addition of 200 µg/ml of porcine mucin (Sigma Chemical Co., St Louis, Mo.) to the transmission reactions. Transmission intervals and washing without replacement of mucin or compound are carried as described above. All determinations are performed in triplicate with serial ½ Log10 dilution of the test materials.
TC50 values for the test materials are derived by measuring the reduction of the tetrazolium dye XTT (2,3-bis(2-methoxy-4-nitro-5-sulfophenyl)-5-[(phenylamino)carbonyl]-2H-tetrazolium hydroxide) in replicate microtiter plates containing cell and compound without virus. […] XTT solution is prepared daily as a stock of 1 mg/mL in PBS. Phenazine methosulfate (PMS) solution is prepared at 15 mg/mL in PBS and stored in the dark at −20° C. XTT/PMS stock is prepared immediately before use by diluting the PMS 1:100 into PBS and adding 40 µl per mL of XTT solution. Fifty microliters of XTT/PMS are added to each well of the plate and the plate incubated for 4 h at 37° C. The 4 h incubation has been empirically determined to be within the linear response range for […] dye reduction with the indicated numbers of cells for each assay. Adhesive plate sealers are used in place of the lids, the sealed plate is inverted several times to mix the soluble formazan product and the plate is read at 450 nm with a Molecular Devices Vmax 96 well plate format spectrophotometer.
Dextran sulfate (positive) and dextran (negative) are used as controls for the CD4-dependent and CD4-independent HIV transmission inhibition assays. […] Commercially available Penicillin (10,000 U/ml) Streptomycin (10.0 mg/ml) solution is used as a positive control for the Lactobacillus sensitivity assay.

[6] = system: HeLa CD4 LTR […]-gal cells; assay: XTT toxicity on sister plate of the attachment assay; format: cell-based
Description: This assay is designed to detect compounds that interact with the cell and block virus attachment, and/or compounds which interact with the forming attachment/fusion complex. The attachment assay is performed with HeLa CD4 LTR […]-gal cells. HeLa CD4 LTR […]-gal cells are routinely cultured with the required selection antibiotics. Twenty-four h prior to initiation of the assay the cells are trypsinized, counted and 1×10^4 cells placed in a 0.2 cm well in media without selection antibiotics. At 24 h media is removed and compound in media placed on the cells and incubated for 15 min at 37° C. A known titer of the IIIB strain of HIV is then added to the wells and the incubation continued for 1 h. At the end of the incubation the wells are washed 3 times with media and the culture continued for 40 to 48 h. At termination of the assay, media is removed and […]-galactosidase enzyme expression determined by chemiluminescence per manufacturers instructions (Tropix Gal-screen™, Bedford Mass.) by a single step chemiluminescent method using a single solution to lyse the cells and detect […]-galactosidase enzyme activity. Compound toxicity is monitored on a sister plate by XTT dye reduction. […] The virus adsorption interval of 1 h is sufficiently short that AZT, which requires phosphorylation to its active tri-phosphate form (AZT-TTP), is not active in this assay.

Substance: BHAlyslys2lys4lys8lys16[NH—CO—CH2)O-3,6-Naphthyl-(SO3Na)2]32 [SPL-7013]
- Attachment Assay IC50 [1]: 0.57 µg/ml
- L. crispatus (ID50) [2]: >100 µg/mL
- L jensenii (ID50) [3]: >100 µg/mL
- Fusion Assay TC50 [4]: >100 µg/mL
- CD4-Independent Transmission Assay TC50 [5]: >100 µg/mL
- Attachment Assay TC50 [6]: >100 µg/mL
